According to paper PMC11178787, “Development of a natural product optimization strategy for inhibitors against MraY, a promising antibacterial target” (Nature Communications, 2024):
Converted amounts (≈) assume the structure as drawn. Where two headings read alike, the source gives them in different places.

Experiments:
Assay in all cases: microbe, parasite or virus in culture
[1] = tested on: T1, Staphylococcus aureus #2110; set-up: CLSI broth microdilution MIC in MHB-II; details: Staphylococcus aureus, 18 h, read-out: MIC
T1 construct: #2110
Procedure: (§1) MICs were determined by a microdilution broth method as recommended by the CLSI with MHB-II. For MICs of stable analogues, a 2-fold dilution of each compound was prepared in DMSO at 100-fold of the final concentration. The strains were inoculated with 5 × 10^5 cfu/mL in 96-well plates (each 100 μL/well), and 1 μL of DMSO solutions of the samples were added (contained less than 1% DMSO). The plates were incubated at 37 °C for 18 h and then MICs were determined. MICs of stable analogues in Table 1 were the highest value in three trials. MICs in Supplementary Table 1 were determined in one trial.

Enterococcus faecalis 29 = tested on: T2, Enterococcus faecalis 29; set-up: CLSI broth microdilution MIC in MHB-II; details: Enterococcus faecalis, 29, 18 h, read-out: MIC
T2 construct: 29
Procedure: as §1

Enterococcus faecium 1 = tested on: Enterococcus faecium 1; set-up: CLSI broth microdilution MIC in MHB-II; details: Enterococcus faecium, 1, 18 h, read-out: MIC
Procedure: as §1

Enterococcus faecium 3 = tested on: Enterococcus faecium 3; set-up: CLSI broth microdilution MIC in MHB-II; details: Enterococcus faecium, 3, 18 h, read-out: MIC
Procedure: as §1

Enterococcus faecalis 27 = tested on: T3, Enterococcus faecalis 27; set-up: CLSI broth microdilution MIC in MHB-II; details: Enterococcus faecalis, 27, 18 h, read-out: MIC
T3 construct: 27
Procedure: as §1

[2] = tested on: T4, Staphylococcus aureus #2931; set-up: CLSI broth microdilution MIC in MHB-II; details: Staphylococcus aureus, 18 h, read-out: MIC
T4 construct: #2931
Procedure: as §1

Enterococcus faecium 11 = tested on: T5, Enterococcus faecium 11; set-up: CLSI broth microdilution MIC in MHB-II; details: Enterococcus faecium, 11, 18 h, read-out: MIC
T5 construct: 11
Procedure: as §1

Enterococcus faecalis 30 = tested on: T6, Enterococcus faecalis 30; set-up: CLSI broth microdilution MIC in MHB-II; details: Enterococcus faecalis, 30, 18 h, read-out: MIC
T6 construct: 30
Procedure: as §1

Enterococcus faecium 8 = tested on: Enterococcus faecium 8; set-up: CLSI broth microdilution MIC in MHB-II; details: Enterococcus faecium, 8, 18 h, read-out: MIC
Procedure: as §1

Enterococcus faecalis 21 = tested on: T7, Enterococcus faecalis 21; set-up: CLSI broth microdilution MIC in MHB-II; details: Enterococcus faecalis, 21, 18 h, read-out: MIC
T7 construct: 21
Procedure: as §1

Enterococcus faecalis 22 = tested on: T8, Enterococcus faecalis 22; set-up: CLSI broth microdilution MIC in MHB-II; details: Enterococcus faecalis, 22, 18 h, read-out: MIC
T8 construct: 22
Procedure: as §1

[3] = tested on: T9, Staphylococcus aureus #2934; set-up: CLSI broth microdilution MIC in MHB-II; details: Staphylococcus aureus, 18 h, read-out: MIC
T9 construct: #2934
Procedure: as §1

Enterococcus faecium 10 = tested on: T10, Enterococcus faecium 10; set-up: CLSI broth microdilution MIC in MHB-II; details: Enterococcus faecium, 10, 18 h, read-out: MIC
T10 construct: 10
Procedure: as §1

Enterococcus faecalis 24 = tested on: T11, Enterococcus faecalis 24; set-up: CLSI broth microdilution MIC in MHB-II; details: Enterococcus faecalis, 24, 18 h, read-out: MIC
T11 construct: 24
Procedure: as §1

Enterococcus faecalis 23 = tested on: T12, Enterococcus faecalis 23; set-up: CLSI broth microdilution MIC in MHB-II; details: Enterococcus faecalis, 23, 18 h, read-out: MIC
T12 construct: 23
Procedure: as §1

Enterococcus faecalis 28 = tested on: T13, Enterococcus faecalis 28; set-up: CLSI broth microdilution MIC in MHB-II; details: Enterococcus faecalis, 28, 18 h, read-out: MIC
T13 construct: 28
Procedure: as §1

Enterococcus faecium 4 = tested on: Enterococcus faecium 4; set-up: CLSI broth microdilution MIC in MHB-II; details: Enterococcus faecium, 4, 18 h, read-out: MIC
Procedure: as §1

E. faecium ATCC 35667 = tested on: T14, E. faecium ATCC 35667; set-up: CLSI broth microdilution MIC in MHB-II, single trial; details: Enterococcus faecium, ATCC35667, 18 h
T14 construct: ATCC 35667
Procedure: as §1

[4] = tested on: T15, Staphylococcus aureus MRSA JE2; set-up: CLSI broth microdilution MIC in MHB-II, single trial; details: 18 h
T15 construct: JE2 (MRSA)
Procedure: as §1

S. aureus ATCC 29213 = tested on: T16, S. aureus ATCC 29213; set-up: CLSI broth microdilution MIC in MHB-II, single trial; details: Staphylococcus aureus, ATCC29213, 18 h
T16 construct: ATCC 29213
Procedure: as §1

[5] = tested on: T17, E. faecium(VRE) ATCC 51559; set-up: CLSI broth microdilution MIC in MHB-II, single trial; details: Enterococcus faecium, 18 h
T17 construct: ATCC 51559 (VRE)
Procedure: as §1

[6] = tested on: T18, E. faecium(VRE) ATCC 51858; set-up: CLSI broth microdilution MIC in MHB-II, single trial; details: Enterococcus faecium, 18 h
T18 construct: ATCC 51858 (VRE)
Procedure: as §1

[7] = tested on: T19, E. faecalis(VRE) ATCC 51299; set-up: CLSI broth microdilution MIC in MHB-II, single trial; details: Enterococcus faecalis, 18 h
T19 construct: ATCC 51299 (VRE)
Procedure: as §1

[8] = tested on: T20, Staphylococcus aureus #2935; set-up: CLSI broth microdilution MIC in MHB-II; details: Staphylococcus aureus, 18 h, read-out: MIC
T20 construct: #2935
Procedure: as §1

Compound | MIC [1] [µg/mL] | MIC (Enterococcus faecalis 29) [µg/mL] | MIC (Enterococcus faecium 1) [µg/mL] | MIC (Enterococcus faecium 3) [µg/mL] | MIC (Enterococcus faecalis 27) [µg/mL] | MIC [2] [µg/mL] | MIC (Enterococcus faecium 11) [µg/mL] | MIC (Enterococcus faecalis 30) [µg/mL] | MIC (Enterococcus faecium 8) [µg/mL] | MIC (Enterococcus faecalis 21) [µg/mL] | MIC (Enterococcus faecalis 22) [µg/mL] | MIC [3] [µg/mL] | MIC (Enterococcus faecium 10) [µg/mL] | MIC (Enterococcus faecalis 24) [µg/mL] | MIC (Enterococcus faecalis 23) [µg/mL] | MIC (Enterococcus faecalis 28) [µg/mL] | MIC (Enterococcus faecium 4) [µg/mL] | other results
CCCCCCCCCCCCCCCC(=O)N[C@@H](CCCNC(=N)N)C(=O)Nc1ccc(CN[C@H](C(=O)O)[C@H](O[C@@H]2O[C@H](CN)[C@@H](O)[C@H]2O)[C@H]2O[C@@H](n3ccc(=O)[nH]c3=O)[C@H](O)[C@@H]2O)cc1 [compound 7, analogue 7] | 2 (≈ 2.11 µM) | < 0.06 | 1 (≈ 1.05 µM) | 1 (≈ 1.05 µM) | 0.25 (≈ 0.264 µM) | 1 (≈ 1.05 µM) | 2 (≈ 2.11 µM) | 0.25 (≈ 0.264 µM) | 0.5 (≈ 0.527 µM) | 0.5 (≈ 0.527 µM) | 0.13 (≈ 0.137 µM) | 1 (≈ 1.05 µM) | 1 (≈ 1.05 µM) | 0.13 (≈ 0.137 µM) | 0.5 (≈ 0.527 µM) | < 0.06 | 0.5 (≈ 0.527 µM) | MIC (E. faecium ATCC 35667; read-out: 7 MIC): 0.5 µg/mL (≈ 0.527 µM); MIC ([4]; read-out: 7 MIC): 1 µg/mL (≈ 1.05 µM); MIC (S. aureus ATCC 29213; read-out: 7 MIC): 1 µg/mL (≈ 1.05 µM); MIC ([5]; read-out: 7 MIC): 0.5 µg/mL (≈ 0.527 µM); MIC ([6]; read-out: 7 MIC): 2 µg/mL (≈ 2.11 µM); MIC ([7]; read-out: 7 MIC): 0.5 µg/mL (≈ 0.527 µM)
CCCCCCCCCCCCCCCC(=O)N[C@@H](CCCCN)C(=O)Nc1cccc(CN[C@H](C(=O)O)[C@H](O[C@@H]2O[C@H](CN)[C@@H](O)[C@H]2O)[C@H]2O[C@@H](n3ccc(=O)[nH]c3=O)[C@H](O)[C@@H]2O)c1 [compound 6, analogue 6] | 2 (≈ 2.17 µM) | 0.25 (≈ 0.272 µM) | 1 (≈ 1.09 µM) | 1 (≈ 1.09 µM) | 0.5 (≈ 0.543 µM) | 0.5 (≈ 0.543 µM) | 1 (≈ 1.09 µM) | 0.5 (≈ 0.543 µM) | 0.5 (≈ 0.543 µM) | 0.25 (≈ 0.272 µM) | 0.5 (≈ 0.543 µM) | 0.5 (≈ 0.543 µM) | 1 (≈ 1.09 µM) | 0.5 (≈ 0.543 µM) | 0.5 (≈ 0.543 µM) | 0.13 (≈ 0.141 µM) | 0.5 (≈ 0.543 µM) | MIC [8]: 1 µg/mL (≈ 1.09 µM); MIC (E. faecium ATCC 35667; read-out: 6 MIC): 0.5 µg/mL (≈ 0.543 µM); MIC ([4]; read-out: 6 MIC): 1 µg/mL (≈ 1.09 µM); MIC (S. aureus ATCC 29213; read-out: 6 MIC): 1 µg/mL (≈ 1.09 µM); MIC ([5]; read-out: 6 MIC): 1 µg/mL (≈ 1.09 µM); MIC ([6]; read-out: 6 MIC): 2 µg/mL (≈ 2.17 µM); MIC ([7]; read-out: 6 MIC): 0.5 µg/mL (≈ 0.543 µM)
CN[C@H](CC(C)C)C(=O)N[C@H]1C(=O)N[C@@H](CC(N)=O)C(=O)N[C@H]2C(=O)N[C@H]3C(=O)N[C@H](C(=O)N[C@H](C(=O)O)c4cc(O)cc(O)c4-c4cc3ccc4O)[C@H](O)c3ccc(c(Cl)c3)Oc3cc2cc(c3O[C@@H]2O[C@H](CO)[C@@H](O)[C@H](O)[C@H]2O[C@H]2C[C@](C)(N)[C@H](O)[C@H](C)O2)Oc2ccc(cc2Cl)[C@H]1O [vancomycin] | 2 (≈ 1.38 µM) | 1 (≈ 0.69 µM) | 1 (≈ 0.69 µM) | 1 (≈ 0.69 µM) | 1 (≈ 0.69 µM) | 1 (≈ 0.69 µM) | 1 (≈ 0.69 µM) | 1 (≈ 0.69 µM) | 1 (≈ 0.69 µM) | 1 (≈ 0.69 µM) | 1 (≈ 0.69 µM) | 1 (≈ 0.69 µM) | 1 (≈ 0.69 µM) | 1 (≈ 0.69 µM) | 1 (≈ 0.69 µM) | 1 (≈ 0.69 µM) | 1 (≈ 0.69 µM) | MIC (E. faecium ATCC 35667; read-out: vancomycin MIC): 1 µg/mL (≈ 0.69 µM); MIC ([4]; read-out: vancomycin MIC): 1 µg/mL (≈ 0.69 µM); MIC (S. aureus ATCC 29213; read-out: vancomycin MIC): 1 µg/mL (≈ 0.69 µM); MIC ([5]; read-out: vancomycin MIC): > 128 µg/mL; MIC ([6]; read-out: vancomycin MIC): 128 µg/mL (≈ 88.3 µM); MIC ([7]; read-out: vancomycin MIC): 128 µg/mL (≈ 88.3 µM)
